Paper PMC12818745 (ACS Chemical Neuroscience, 2025)

Target: eeAChE (Electrophorus electricus AChE) (Electrophorus electricus, UniProt O42275)
Assay: Cholinesterase inhibition assay (modified Ellman's method), eeAChE
Format: biochemical
Conditions: mean ± SEM, n = 3; n.a = nonactive; IC50 determined only if inhibition higher than 50% at 20 μM
From the text: Compound series A and B were initially screened for their cholinesterase activity against eeAChE (Electrophorus electricus AChE) and eqBChE (equine serum butyrylcholinesterase), using an adaptation of the Ellman’s method. […]. […] Similarly, replacing the terminal triple bond in 7l with a nitrile group reduced its activity, while replacing the O-propargyl group with an N,N-dipropargyl group in 10 enhanced the inhibition of both enzymes, particularly BChE (Table ). The installation of an additional aryl ring in 7o further improved AChE inhibition, slightly increasing selectivity toward this enzyme. […]. […]. […]. The inhibitory activity of the synthesized compounds toward eeAChE and eqBChE was evaluated spectrophotometrically through a 96-well microplate modified Ellman’s method. The solutions of both enzymes were prepared as 0.025 U/mL in phosphate buffer at pH 7, from stock solutions of 5.05 U/mL and 7.50 U/mL, respectively. The stock solutions for the target compounds (0.1 M) were prepared in dimethyl sulfoxide (DMSO). […] The reaction mixture was prepared with 100 μL of the enzyme (eeAChE or eqBChE) and 50 μL of the test compound (or DMSO/water, not exceeding 0.2% of DMSO in the wells; i.e blank samples). After 5 min of the preincubation period at 37 °C, 50 μL of ATChI or BTChI and 50 μL of DTNB were added to each well, thus initiating the enzymatic reaction. The absorbance values were measured at 415 nm, for a total of 7.5 min, at every 2.5 min, using a microplate reader (Synergy multimode reader; BioTek). […]. All experiments were performed in triplicate.

eeAChE (Electrophorus electricus AChE), sequence (O42275 24-633): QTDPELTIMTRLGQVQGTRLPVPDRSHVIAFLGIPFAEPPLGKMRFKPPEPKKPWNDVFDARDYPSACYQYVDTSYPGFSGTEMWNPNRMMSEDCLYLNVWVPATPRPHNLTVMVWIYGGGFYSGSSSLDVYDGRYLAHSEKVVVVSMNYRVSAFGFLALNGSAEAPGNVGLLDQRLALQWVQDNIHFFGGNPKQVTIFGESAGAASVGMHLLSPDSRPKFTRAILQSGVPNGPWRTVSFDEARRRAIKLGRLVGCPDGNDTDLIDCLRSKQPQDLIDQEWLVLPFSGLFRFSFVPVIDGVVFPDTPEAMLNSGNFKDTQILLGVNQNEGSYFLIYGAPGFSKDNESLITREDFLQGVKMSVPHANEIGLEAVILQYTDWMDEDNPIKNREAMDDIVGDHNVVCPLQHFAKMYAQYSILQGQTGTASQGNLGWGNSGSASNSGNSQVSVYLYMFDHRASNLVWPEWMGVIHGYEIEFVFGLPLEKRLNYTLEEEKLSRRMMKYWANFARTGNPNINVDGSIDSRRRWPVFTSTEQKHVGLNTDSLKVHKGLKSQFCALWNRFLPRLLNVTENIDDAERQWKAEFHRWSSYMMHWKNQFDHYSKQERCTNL

Row | Structure (SMILES) | IC50
1 | O=c1c2ccccc2oc2cc3c(cc12)COc1ccccc1-3 [Compound 11a, 6H,8H-Chromeno[3,4-b]xanthen-8-one] | 2.1 ± 0.2 µM
2 | C#CCOc1ccccc1/C=C/c1cc(=O)c2ccccc2o1 [Compound 7a, (E)-2-[2-(Prop-2-yn-1-yloxy)styryl]-4H-chromen-4-one] | 9.5 ± 0.3 µM
3 | C#CCOc1ccccc1/C=C/c1cc(=O)c2ccc(OC)c(OC)c2o1 [Compound 7d, (E)-7,8-Dimethoxy-2-[2-(prop-2-yn-1-yloxy)styryl]-4H-chromen-4-one] | 2.4 ± 0.4 µM
4 | COc1ccc2c(=O)c3cc4c(cc3oc2c1)-c1ccccc1OC4 [Compound 11b, 11-Methoxy-6H,8H-chromeno[3,4-b]xanthen-8-one] | 3.9 ± 0.9 µM
5 | Cc1ccc(C#CCOc2ccccc2/C=C/c2cc(=O)c3ccccc3o2)cc1 [Compound 7o, (E)-2-(2-{[3-(4-methylphenyl)prop-2-yn-1-yl]oxy}styryl)-4H-chromen-4-one] | 2.9 ± 0.5 µM

Target: T1, Aβ42 aggregation (Homo sapiens, UniProt P05067)
T1 construct: expressed in transfected cells; host or cells: E. coli BL21 (DE3), pET vector
Assay: Thioflavin S assay of Aβ42 aggregation in E. coli cells overexpressing Aβ42
Format: cell-based, Escherichia coli
Conditions: read-out: Aβ42 inhibition %
Protocol: The antiaggregating profiles of both series A and B were evaluated using a fluorescence Thioflavin S (ThS) assay in cellulo, which monitors ThS fluorescence in the presence of β-sheet-rich structures, such as Aβ and tau protein aggregates. This method, based on recombinant Escherichia coli (E. coli) bacteria overexpressing insoluble aggregates, offers a simple and cost-effective approach to model aggregation processes in mammalian systems and has been validated for use in drug discovery studies. , Compounds were tested at a screening concentration of 50 μM for their ability to inhibit Aβ42 aggregation. The results, summarized in Table , reveal distinct antiaggregating profiles between series A and B, which are once again influenced by their structural differences.
42 Amino acid Aβ42 was cloned and overexpressed in E. coli BL21 (DE3) competent cells using the pET vector harboring the DNA sequence of Aβ42. Due to the addition of the initiation codon ATG preceding genes, the resulting overexpressed peptide contained an additional methionine residue at its N-terminus. For the preparation of overnight cultures, a colony of BL21 (DE3) cells carrying the plasmid for expression was inoculated in 10 mL of M9 minimal medium supplemented with 50 μg mL^–1 kanamycin at 37 °C. Subsequently, a 1:500 dilution of the overnight culture was added to fresh M9 minimal medium containing 50 μg mL^–1 kanamycin and 25 μM ThS. The bacterial culture was then incubated at 37 °C with agitation at 250 rpm. Upon reaching an OD600 of 0.6, 980 μL of the culture was transferred into 1.5 mL Eppendorf tubes, each containing 10 μL of the compound to be tested dissolved in DMSO and 10 μL of 100 mM isopropyl 1-thio-β-D-galactopyranoside (IPTG) or, alternatively, 10 μL of water for the noninduced controls. The final compound concentration was adjusted to […]. The samples were allowed to grow overnight at 37 °C with agitation at 1400 rpm using a Thermomixer (Eppendorf). Negative controls, representing maximum amyloid presence, utilized free DMSO.
ThS (T1892) and all other chemical reagents were purchased from Sigma (St. Louis, MO). Stock solutions of ThS (250 μM) were prepared using doubly distilled water purified via a Milli-Q system (Millipore). For the fluorescence assay, ThS spectra were recorded utilizing an AmincoBowman series 2 luminescence spectrophotometer (Aminco-Bowman AB2, SLM Aminco, Rochester, NY) within the range of 460 to 600 nm at a temperature of 25 °C. The excitation wavelength employed was 445 nm, with slit widths set at 4 nm. The emission at 485 nm, corresponding to the ThS peak observed in the presence of amyloids, was recorded. To standardize ThS fluorescence relative to bacterial concentration in both in vitro and cell-based assays, the OD600 was determined using a Shimadzu UV-2401 PC UV–vis spectrophotometer. Fluorescence normalization was executed by setting the ThS fluorescence of bacterial cells expressing the peptide or protein in the absence of the drug as 100%, while that of bacterial cells not expressing the peptide or protein was established as 0%.

T1 sequence (P05067 672-713): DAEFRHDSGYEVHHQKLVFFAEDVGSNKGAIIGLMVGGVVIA

Row | Structure (SMILES) | inhibition at 50 µM
6 | O=c1c2ccccc2oc2cc3c(cc12)COc1ccccc1-3 [Compound 11a, 6H,8H-Chromeno[3,4-b]xanthen-8-one] | 15 ± 4.6%
7 | COc1ccc(C#CCOc2ccccc2/C=C/c2cc(=O)c3ccccc3o2)cc1 [Compound 7n, (E)-2-(2-{[3-(4-Methoxyphenyl)prop-2-yn-1-yl]oxy}styryl)-4H-chromen-4-one] | 34 ± 3.3%
8 | C#CCOc1ccc(OC(F)(F)F)cc1/C=C/c1cc(=O)c2ccc(OC)cc2o1 [Compound 7t, (E)-7-Methoxy-2-[2-(prop-2-yn-1-yloxy)-5-(trifluoromethoxy)styryl]-4H-chromen-4-one] | 20 ± 2.3%
9 | O=c1c2ccccc2oc2cc3c(cc12)COc1ccc(Cl)cc1-3 [Compound 11j, 2-Chloro-6H,8H-chromeno[3,4-b]xanthen-8-one] | 45 ± 7.4%
10 | O=c1cc(/C=C/c2ccccc2OCC#Cc2ccccc2)oc2ccccc12 [Compound 7m, (E)-2-{2-[(3-Phenylprop-2-yn-1-yl)oxy]styryl}-4H-chromen-4-one] | 28 ± 3.8%
11 | C#CCOc1c(Br)cc(Cl)cc1/C=C/c1cc(=O)c2ccccc2o1 [Compound 7k, (E)-2-[3-Bromo-5-chloro-2-(prop-2-yn-1-yloxy)styryl]-4H-chromen-4-one] | 24 ± 3%
12 | C#CCOc1ccccc1/C=C/c1cc(=O)c2ccccc2o1 [Compound 7a, (E)-2-[2-(Prop-2-yn-1-yloxy)styryl]-4H-chromen-4-one] | 38 ± 6.2%
13 | C#CCOc1ccc(Cl)cc1/C=C/c1cc(=O)c2ccc(OC)cc2o1 [Compound 7v, (E)-2-[5-Chloro-2-(prop-2-yn-1-yloxy)styryl]-7-methoxy-4H-chromen-4-one] | 17 ± 2%
14 | C#CCOc1ccccc1/C=C/c1cc(=O)c2c(OC)cccc2o1 [Compound 7c, (E)-5-Methoxy-2-[2-(prop-2-yn-1-yloxy)styryl]-4H-chromen-4-one] | 33 ± 2.2%
15 | C#CCOc1ccccc1/C=C/c1cc(=O)c2ccc(OC)c(OC)c2o1 [Compound 7d, (E)-7,8-Dimethoxy-2-[2-(prop-2-yn-1-yloxy)styryl]-4H-chromen-4-one] | 28 ± 1.7%
16 | C#CCOc1ccc(OC)cc1/C=C/c1cc(=O)c2ccc(OC)cc2o1 [Compound 7p, (E)-7-Methoxy-2-[5-methoxy-2-(prop-2-yn-1-yloxy)styryl]-4H-chromen-4-one] | 11 ± 1.5%
17 | COc1ccc2c(=O)c3cc4c(cc3oc2c1)-c1cc(OC(F)(F)F)ccc1OC4 [Compound 11p, 11-Methoxy-2-(trifluoromethoxy)-6H,8H-chromeno[3,4-b]xanthen-8-one] | 29 ± 7.6%
18 | C#CCOc1ccccc1/C=C/c1cc(=O)c2ccc(OC)cc2o1 [Compound 7b, (E)-7-Methoxy-2-[2-(prop-2-yn-1-yloxy)styryl]-4H-chromen-4-one] | 23 ± 1.8%
19 | C#CCOc1ccc(OC)cc1/C=C/c1cc(=O)c2ccccc2o1 [Compound 7f, (E)-2-[5-Methoxy-2-(prop-2-yn-1-yloxy)styryl]-4H-chromen-4-one] | 15 ± 2.7%
20 | O=c1c2ccccc2oc2cc3c(cc12)COc1ccc(Br)cc1-3 [Compound 11g, 2-Bromo-6H,8H-chromeno[3,4-b]xanthen-8-one] | 36 ± 4.8%
21 | C#CCOc1ccc(F)cc1/C=C/c1cc(=O)c2ccc(OC)cc2o1 [Compound 7u, (E)-2-[5-Fluoro-2-(prop-2-yn-1-yloxy)styryl]-7-methoxy-4H-chromen-4-one] | 28 ± 3.5%
22 | C#CCOc1ccc(Cl)cc1/C=C/c1cc(=O)c2ccccc2o1 [Compound 7j, (E)-2-[5-Chloro-2-(prop-2-yn-1-yloxy)styryl]-4H-chromen-4-one] | 11 ± 2.3%

Row | Structure (SMILES) | inhibition at 50 µM
23 | N#CCOc1ccccc1/C=C/c1cc(=O)c2ccccc2o1 [Compound 7l, (E)-2-{2-[2-(4-oxo-4H-chromen-2-yl)vinyl]phenoxy}acetonitrile] | 34 ± 5.2%
24 | C#CCOc1ccc(OC(F)(F)F)cc1/C=C/c1cc(=O)c2ccccc2o1 [Compound 7h, (E)-2-[2-(Prop-2-yn-1-yloxy)-5-(trifluoromethoxy)styryl]-4H-chromen-4-one] | 11 ± 2%
25 | C#CCOc1c(Br)cc(Cl)cc1/C=C/c1cc(=O)c2ccc(OC)cc2o1 [Compound 7w, (E)-2-[3-Bromo-5-chloro-2-(prop-2-yn-1-yloxy)styryl]-7-methoxy-4H-chromen-4-one] | 35 ± 3%
26 | C#CCOc1ccc(OC)cc1/C=C/c1cc(=O)c2c(OC)cc(OC)cc2o1 [Compound 7s, (E)-5,7-Dimethoxy-2-[5-methoxy-2-(prop-2-yn-1-yloxy)styryl]-4H-chromen-4-one] | 50 ± 1.6%
27 | C#CCOc1ccc(Br)cc1/C=C/c1cc(=O)c2ccccc2o1 [Compound 7g, (E)-2-[5-Bromo-2-(prop-2-yn-1-yloxy)styryl]-4H-chromen-4-one] | 25 ± 4.6%
28 | COc1ccc2c(=O)c3cc4c(cc3oc2c1)-c1ccccc1OC4 [Compound 11b, 11-Methoxy-6H,8H-chromeno[3,4-b]xanthen-8-one] | 22 ± 2.7%
29 | Cc1ccc(C#CCOc2ccccc2/C=C/c2cc(=O)c3ccccc3o2)cc1 [Compound 7o, (E)-2-(2-{[3-(4-methylphenyl)prop-2-yn-1-yl]oxy}styryl)-4H-chromen-4-one] | 37 ± 2%
30 | COc1cccc2oc3cc4c(cc3c(=O)c12)COc1ccccc1-4 [Compound 11c, 9-Methoxy-6H,8H-chromeno[3,4-b]xanthen-8-one] | 34 ± 4.4%
31 | COc1ccc2c(c1)-c1cc3oc4cc(OC)cc(OC)c4c(=O)c3cc1CO2 [Compound 11o, 2,9,11-Trimethoxy-6H,8H-chromeno[3,4-b]xanthen-8-one] | 33 ± 4.3%
32 | C#CCOc1ccc(F)cc1/C=C/c1cc(=O)c2ccccc2o1 [Compound 7i, (E)-2-[5-Fluoro-2-(prop-2-yn-1-yloxy)styryl]-4H-chromen-4-one] | 22 ± 4.8%
33 | C#CCOc1ccc2ccccc2c1/C=C/c1cc(=O)c2ccccc2o1 [Compound 8a] | 47 ± 3.9%
34 | C#CCOc1ccc2ccccc2c1/C=C/c1cc(=O)c2ccc(OC)cc2o1 [Compound 8b] | 32 ± 4.3%
35 | C#CCOc1ccc(OC)cc1/C=C/c1cc(=O)c2ccc(OC)c(OC)c2o1 [Compound 7r] | 40 ± 5.6%
36 | O=c1c2ccccc2oc2cc3c(cc12)COc1ccc2ccccc2c1-3 [Compound 12a] | 43 ± 3.9%
37 | C#CCOc1ccccc1/C=C/c1cc(=O)c2c(OC)cc(OC)cc2o1 [Compound 7e, (E)-5,7-Dimethoxy-2-[2-(prop-2-yn-1-yloxy)styryl]-4H-chromen-4-one] | 24 ± 1.7%
38 | COc1ccc2c(c1)-c1cc3oc4c(OC)c(OC)ccc4c(=O)c3cc1CO2 [Compound 11n, 2,11,12-Trimethoxy-6H,8H-chromeno[3,4-b]xanthen-8-one] | 34 ± 4%
